The text below walks through data of patent US6068851A, “Formulation for use in the prevention of pathogen induced diseases including HIV and HSV” (Infectio Recherche, Inc., priority 1999, dated 2000).

The nature of data set [1]: Drug release from poloxamer gel (diffusion cell, dialysis membrane, radiolabelled drugs). As to conditions: body temperature vs 4° C.; data not shown. It is filed as physicochemical. The source says: The poloxamer gel could act as a sustained-drug release system which prolong the local microbicidal activity of the incorporated active agents. We have studied the release of antiviral agents (AZT, ddC, ddi, foscarnet, acyclovir) from our poloxamer gel formulations using radiolabelled drugs and a diffusion cell made of two compartments separated by a dialysis membrane. […] This is explained by the creation of large openings in the intermicellar network of the gel at high temperature which in turn increase the release of the incorporated active agents.

The test system of data set [2] is vaginal and cervical mucosae of rabbits. As to the kind of experiment: In vivo tolerance/toxicity, vaginal and cervical mucosae, daily intravaginal application. The arrangement: species or system New Zealand rabbits. The conditions noted are these: once daily intravaginal for two weeks; nonoxynol-9 dose 125 mg. Here is the method:
(§1) Studies have been performed to evaluate the tolerance and toxicity of the poloxamer 407 gel (19.5% w/w) when applied locally once daily for two weeks to the vaginal and cervical mucosae of New Zealand rabbits. The gel was applied in its fluid state to allow a good penetration into the irregularly shaped surfaces of the mucosae. Biopsies of the vaginal and cervical mucosae were performed on days 0, 4, 7 and 14 for histological examinations. […] Such toxicity induced by nonoxynol-9 might favour the entry of pathogens.

The conditions of data set [3]: background statement; cited from earlier work.
The test system of data set [4] is cervical mucosa of rabbits. As to the kind of experiment: Histopathology of cervix after daily intravaginal application. It is filed as in vivo, New Zealand rabbits. As to conditions: once daily intravaginal for two weeks. On the procedure:
as §1

The next data set relates to human cervical cells. The data set is described as follows: Viability of human cervical cells with nonoxynol-9, free or in poloxamer gel. It is filed as cell-based. On the procedure:
FIG. 2 represents the viability of human cervical cells following incubation with different concentrations of nonoxynol-9 either as free drug or incorporated into the poloxamer gel (19.5% w/w).

Turning to `Nc1nc2c(ncn2COCCO)c(=O)[nH]1` [acyclovir], the “release of drugs from the poloxamer gel” value in data set [1] is “increased at body temperature when compared to 4 °C”. Regarding `O=C(O)P(=O)(O)O` [foscarnet], in data set [1], the “release of drugs from the poloxamer gel” value is “increased at body temperature when compared to 4 °C”.

Turning to `Cc1cn([C@H]2C[C@H](N=[N+]=[N-])[C@@H](CO)O2)c(=O)[nH]c1=O` [AZT], the “release of drugs from the poloxamer gel” value in data set [1] was “increased at body temperature when compared to 4 °C”.

Regarding `Nc1ccn([C@H]2CC[C@@H](CO)O2)c(=O)n1` [ddC, 2'-3'-dideoxycytidine], the “release of drugs from the poloxamer gel” value in data set [1] was “increased at body temperature when compared to 4 °C”. Turning to nonoxynol-9, the “toxicity to vaginal and cervical mucosae” value in data set [2] was “very toxic as evidenced by the presence of epithelial disruption, irritation, necrosis and bleeding”. For the same molecule, in data set [3], the “local inflammation and ulcerations” value was “induce local inflammation and ulcerations”. For the same molecule, in data set [4], the “histopathology of cervical mucosa” value is “large accumulation of eosinophiles in the sub-mucosa and induce a major loss of integrity of the epithelial cells”. Further, the “toxicity to human cervical cells (viability)” value in the data set with human cervical cells (different concentrations of nonoxynol-9, free or in gel) was “highly toxic to the human cervical cells in a dose-dependent manner”. Also, the “concentration at which toxicity starts” value in the data set on human cervical cells (free nonoxynol-9, human cervical cells) came out at 150 µg/mL. `O=c1[nH]cnc2c1ncn2[C@H]1CC[C@@H](CO)O1` [ddi, 2'-3'-dideoxyinosine]: the “release of drugs from the poloxamer gel” value in data set [1] was “increased at body temperature when compared to 4 °C”.
